Assay results: US10144706B2 (BRISTOL-MYERS SQUIBB COMPANY, priority 2016, dated 2018)

Biological target: T1, PD-1/PD-L1 interaction (PD-1-Ig / PD-L1-His) (Homo sapiens, UniProt Q9NZQ7)
T1 construct: hPDL1(18-239)-TVMV-His; TVMV protease site linker (C); made in house; host or cells: HEK293T
Experiment: PD-1/PD-L1 Homogenous Time-Resolved Fluorescence (HTRF) binding assay
Details: IC50 range class; PD-L1-His 10 nM, PD-1-Ig 20 nM; read-out: Range or IC50
How it was run: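 Human PD-L1-His (10 nM final) was pre-incubated with inhibitor for 15 min, then PD-1-Ig (20 nM final) was added for a further 15 min in dPBS with 0.1% BSA and 0.05% Tween-20. Binding was detected by HTRF using Eu-cryptate anti-Ig (1 nM) and APC anti-His (20 nM).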

T1 sequence (Q9NZQ7 with tags, fused parts or gaps): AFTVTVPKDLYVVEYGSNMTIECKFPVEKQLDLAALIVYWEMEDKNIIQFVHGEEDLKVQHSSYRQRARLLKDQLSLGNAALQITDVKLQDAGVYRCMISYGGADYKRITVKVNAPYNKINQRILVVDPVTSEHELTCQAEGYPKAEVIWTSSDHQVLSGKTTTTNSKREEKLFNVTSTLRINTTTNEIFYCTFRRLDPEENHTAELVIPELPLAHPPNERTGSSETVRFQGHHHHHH

| IC50 [nM] | Structure (SMILES) |
| --- | --- |
| 0.04 to 20 | Cc1c(COc2cc(OCc3cc(F)cc(F)c3)c(CN[C@@](C)(CO)C(=O)O)cc2Cl)cccc1-c1cccc(COc2cc(OCc3cc(F)cc(F)c3)c(CN[C@@](C)(CO)C(=O)O)cc2Cl)c1C [Example 5009, (2S,2′S)-2,2′-((((((2,2′-dimethyl-[1,1′-biphenyl]-3,3′-diyl)bis(methylene))bis(oxy))bis(5-chloro-2-((3,5-difluorobenzyl)oxy)-4,1-phenylene))bis(methylene))bis(azanediyl))bis(3-hydroxy-2-methylpropanoic acid)] |
| 1000 to 10000 | Cc1cc(OCCCN2CC[C@@H](O)C2)ccc1-c1cccc(OCCCCCN2CC[C@@H](O)C2)c1C [Example 3005, (R)-1-(3-((3′-((5-((R)-3-hydroxypyrrolidin-1-yl)pentyl)oxy)-2,2′-dimethyl-[1,1′-biphenyl]-4-yl)oxy)propyl)pyrrolidin-3-ol] |
| 1000 to 10000 | Cc1c(OCCCN2CC[C@@H](O)C2)cccc1-c1cccc(C(=O)NCCCN2CC[C@@H](O)C2)c1C [Example 3009, 3′-(3-((R)-3-hydroxypyrrolidin-1-yl)propoxy)-N-(3-((R)-3-hydroxypyrrolidin-1-yl)propyl)-2,2′-dimethyl-[1,1′-biphenyl]-3-carboxamide] |
| 0.04 to 20 | Cc1c(COc2cc(OCc3cncc(C#N)c3)c(CN[C@](C)(CO)C(=O)O)cc2Cl)cccc1-c1cccc(COc2cc(OCc3cncc(C#N)c3)c(CN[C@](C)(CO)C(=O)O)cc2Cl)c1C [Example 2121, (2R,2′R)-2,2′-((((((2,2′-dimethyl-[1,1′-biphenyl]-3,3′-diyl)bis(methylene))bis(oxy))bis(5-chloro-2-((5-cyanopyridin-3-yl)methoxy)-4,1-phenylene))bis(methylene))bis(azanediyl))bis(3-hydroxy-2-methylpropanoic acid)] |
| 0.04 to 20 | Cc1c(COc2cc(OCc3cncc(C#N)c3)c(CNC(C(=O)O)C(C)C)cc2Cl)cccc1-c1cccc(COc2cc(OCc3cncc(C#N)c3)c(CNC(C(=O)O)C(C)C)cc2Cl)c1C (stereo not drawn) [Example 40440] |
| 0.04 to 20 | Cc1c(COc2cc(OCc3cncc(C#N)c3)c(CO)cc2Cl)cccc1-c1cccc(COc2cc(OCc3cncc(C#N)c3)c(CNC(CO)(Cc3ccccc3)C(=O)O)cc2Cl)c1C (stereo not drawn) [Example 50060] |
| > 10000 | Cc1c(OCCCN2CC[C@@H](O)C2)cccc1-c1cccc(S(=O)(=O)NCCN2CC[C@@H](O)C2)c1C [Example 3016, N-(2-((R)-3-hydroxypyrrolidin-1-yl)ethyl)-3′-(3-((R)-3-hydroxypyrrolidin-1-yl)propoxy)-2,2′-dimethyl-[1,1′-biphenyl]-3-sulfonamide] |
| 1000 to 10000 | Cc1c(OCCCNCc2cccnc2)cccc1-c1cccc(OCCCN2CC[C@@H](O)C2)c1C [Example 2050, (R)-1-(3-((2,2′-dimethyl-3′-(3-((pyridin-3-ylmethyl)amino)propoxy)-[1,1′-biphenyl]-3-yl)oxy)propyl)pyrrolidin-3-ol] |
| 1000 to 10000 | N#Cc1cncc(COc2cc(OCc3cccc(-c4cccc(COc5cc(OCc6cncc(C#N)c6)c(C(=O)NCC6(CO)CC6)cc5Cl)c4Cl)c3Cl)c(Cl)cc2C(=O)NCC2(CO)CC2)c1 [Example 80160] |
| 90.1 to 1000 | Cc1c(OCCCN(C)CCc2ccccc2)cccc1-c1cccc(OCCCN2CC[C@@H](O)C2)c1C [Example 2110, (R)-1-(3-((2,2′-dimethyl-3′-(3-(methyl(phenethyl)amino)propoxy)-[1,1′-biphenyl]-3-yl)oxy)propyl)pyrrolidin-3-ol] |

Same assay, conditions: numeric IC50; PD-L1-His 10 nM, PD-1-Ig 20 nM; read-out: Range or IC50

| IC50 [nM] | Structure (SMILES) |
| --- | --- |
| 9220 | COC(=O)CC(CC(C)C)NCc1cc(Cl)c(OCc2cccc(-c3cccc(COc4cc(OCc5cncc(C#N)c5)c(CNC(CC(=O)OC)CC(C)C)cc4Cl)c3C)c2C)cc1OCc1cncc(C#N)c1 (stereo not drawn) [Example 40550] |
| 106 | Cc1c(OCCCN2CC[C@@H](O)C2)cccc1-c1cccc(OCc2cccc(C#N)c2)c1C [Example 3019, (R)-3-(((3′-(3-(3-hydroxypyrrolidin-1-yl)propoxy)-2,2′-dimethyl-[1,1′-biphenyl]-3-yl)oxy)methyl)benzonitrile] |
